The record followed here is PubChem BioAssay (NCI).

Test in all cases: NCI anticancer screen, dose series, 48 h
Assay [1] relates to HOP-92 NSCLC.
Assay [2] relates to HS 578T breast.
In assay [3] the test system is SF-539 CNS.
For assay [4], the system named is CAKI-1 renal.
Assay [5] concerns SNB-19 CNS.
Assay [6] deals with UACC-257 melanoma.
For assay [7], the system named is BT-549 breast.
The subject of assay [8] is SF-295 CNS.
Assay [9] deals with PC-3 prostate.
For assay [10], the system named is HT29 colon.

Where “and” joins values, the source holds several entries; their conditions need not be identical. Identical values can stand only once.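 Step 1: Grow cells in 96-well plates. Step 2: Expose to compound for 48 hours at 5 concentrations. Step 3: Interpolate endpoints linearly; if unreached, use highest concentration. GI50 is the concentration that inhibits growth by half. TGI: concentration producing complete growth inhibition.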

For the compound `CN1c2ccccc2S(=O)(=O)n2c(CCc3ccccc3)nnc21`, the TGI in [1] was 98.7 µM; in assay [2] it was > 100 µM; in assay [3] it was > 100 µM; in [4] it was > 100 µM; in [5], > 100 µM; in assay [6] it was > 100 µM. Further, the TGI in assay [7], in assay [8], in [9] and in assay [10] was > 100 µM each time.
With `Cc1cc(=O)oc2cc(OC(=O)N(CCCl)CCCl)ccc12`, the TGI in assay [1] was 95.9 µM; in assay [2], > 100 µM; in [3], > 100 µM; in assay [4], > 100 µM; in [5], > 100 µM; in assay [6], > 100 µM. Further, the TGI in [7], in assay [8], in assay [9] and in [10] was > 100 µM in each case.
As to `CCN(CC)CCOc1c(OC)c(Br)cc2c(C)c(C(=O)OC)oc12`, the GI50 in [2] is 1.44 µM; in assay [3], 1.47 µM; in [4], 1.26 µM; in assay [5], 2.31 µM; in [6] it was 1.53 µM; in assay [7], 1.61 µM. The GI50 in assay [8] was 1.18 µM; in [9], 0.368 µM. Also, the TGI in assay [2] came to 3.82 µM; in assay [3] it was 3.15 µM; in [4], 3.5 µM; in [5], 10.7 µM; in [6], 4.29 µM; in [7] it was 5.62 µM. The TGI in assay [8] worked out at 2.99 µM; in assay [9], 1.03 µM.
For the compound `COc1cc2ncnc3c2cc1OCCCCCN(C)Cc1ccc(Br)cc1N3`, the GI50 in assay [1] was 3.61 µM and 1 µM; in assay [2] it was 10.2 µM and 1.52 µM; in assay [3], > 100 µM; in assay [4], 0.288 µM and 0.375 µM; in assay [5], 24.6 µM and > 10 µM; in [6], 17.9 µM and > 10 µM. In addition, the GI50 in [7] is 21.8 µM and 6.87 µM; in assay [8], 14.1 µM and 5.13 µM; in [9], 4.65 µM and 3.85 µM; in [10], 6.34 µM and 3.35 µM. In addition, the TGI in assay [1] was 71.5 µM and > 10 µM; in [2], > 100 µM; in assay [3] it was > 100 µM; in [4], > 100 µM; in assay [5], > 100 µM; in [6], > 100 µM. Besides, the TGI in assay [7], in assay [8], in assay [9] and in assay [10] was > 100 µM throughout.
Take `Oc1c(CN2CCCC2)cc(CSCc2ccccc2)c2cccnc12`: the GI50 is 4.52 µM in [1]; 4.7 µM in assay [2]; 1.35 µM in assay [3]; 0.0774 µM in assay [4]; 1.72 µM in [5]; 2.14 µM in assay [6]. The GI50 in assay [7] is 2.27 µM; in assay [8], 2.19 µM; in [9], 1.55 µM; in assay [10], 3.88 µM. Further, the TGI in assay [1] came out at 17.6 µM; in [2], 25 µM; in assay [3], 3.93 µM; in assay [4], 1.47 µM; in assay [5], 13.5 µM; in [6], 7.03 µM. In addition, the TGI in assay [7] came out at 12.1 µM; in assay [8] it was 8.13 µM; in assay [9] it was 14 µM; in assay [10], 14 µM.
As to `CC[C@@]12C=CCN3CC[C@]4(c5cc(NC(=O)COc6cc(OCC(=O)Nc7cc8c(cc7OC)N(C)[C@H]7[C@@](O)(C(=O)OC)[C@H](OC(C)=O)[C@]9(CC)C=CCN%10CC[C@]87[C@@H]%109)cc7oc(-c8ccccc8)cc(=O)c67)c(OC)cc5N(C)[C@@H]4[C@](O)(C(=O)OC)[C@H]1OC(C)=O)[C@H]32`, the GI50 is 7.07 µM in [1]; 3.63 µM in assay [2]; 4.62 µM in assay [3]; 4.52 µM in assay [4]; 5.71 µM in assay [5]; > 100 µM in assay [6]. Besides, the GI50 in assay [7] was 3.7 µM; in [8], 3.05 µM; in [9], 2.91 µM; in assay [10] it was 3.42 µM. In addition, the TGI in assay [1] is 80.4 µM; in assay [2] it was > 100 µM; in [3], > 100 µM; in assay [4] it was > 100 µM; in [5], > 100 µM; in [6] it was > 100 µM. In addition, the TGI in [7] was > 100 µM; in assay [8], 11.9 µM; in [9] it was > 100 µM; in [10] it was > 100 µM.
For `CCCCCCCCCCCCCCCCCCNC(=O)OCC(CNS(=O)(=O)CCC[n+]1cccc2ccccc21)COC` (stereo not given), the TGI in assay [1] came to 4.01 µM; in assay [2], 5.35 µM; in [3], 5.63 µM; in [4], 51.3 µM; in assay [5], 6.13 µM; in assay [6], 8.24 µM. Besides, the results for the TGI in assay [7], in [8] and in [9] were 5.41 µM, 30.3 µM and 4.84 µM, respectively.
Turning to `CC[C@H](Nc1nc(N)nc(C2CC2)c1C#N)c1nc2cccc(NCc3ccc(C(=O)NO)cc3)c2c(=O)n1-c1ccccc1`, the GI50 in assay [1] is 1.73 µM; in assay [2] it was 2.8 µM; in assay [3], 1.72 µM; in [4], 1.5 µM; in [5], 2.18 µM; in assay [6] it was 2.05 µM. For the same compound, the GI50 was 2.5 µM in assay [7] and 2.11 µM in assay [9]. Further, the TGI stood at 4.59 µM in assay [1]; 9.51 µM in assay [2]; 3.24 µM in assay [3]; 3.38 µM in [4]; 6.94 µM in assay [5]; 6.16 µM in assay [6]. Further, the TGI worked out at 7.84 µM in assay [7] and 14.6 µM in assay [9].
With `COC(=O)C(=O)C(C(=O)C(N)=O)c1nc2ccc(C(=O)c3ccccc3)cc2[nH]c1=O` (stereo not given), the TGI in assay [1], in [2], in [3], in assay [4], in assay [6] and in assay [7] was > 100 µM in each case. The TGI in [8], in assay [9] and in [10] was > 100 µM throughout.
